Laboratory results from patent EP3009422A1, “Photo-switchable sulfonylureas and their uses” (Ludwig-Maximilians-Universität München, priority 2014, dated 2016).

Experiments:
[1] = pKa measurement, absorbance-based platereader assay; format: physicochemical; conditions: DMSO/buffer mixture (1/1), pH 3.33-6.33, sigmoidal fitting, n = 3 assays
Method: Extinction coefficients were measured on a BMG Labtech Omega Series FLUOstar microplate reader with clear flat-bottom white 96 wellplates by full spectra acquirement in low K^+ external bath buffer (containing in mM: 3 KCl, 118 NaCl, 25 NaHCO3, 2 CaCl2, 1 MgCl2, 10 HEPES; NaOH to pH 7.4). All JB253-containing solutions (dilution series, n = 4: 10 nM; 100 nM; 1 µM; 10 µM; 25 µM; 50 µM) were background substracted and fitted with a linear slope. […] Full absorbance spectra (280-800 nm) were acquired and background subtracted before spectral differences were calculated. The total change of maximal positive and maximal negative difference was calculated and plotted against pH. Sigmoidal fit of the obtained plot gave access to the pKa.

islets = assay: Cytotoxicity assay (calcein-AM / propidium iodide) in islets; format: cell-based; conditions: 1 hr incubation, n = 28 islets from four animals
Method: Islets were incubated with either DMSO or JB253 for 1 hr before staining with 3 µM of calcein-AM (live) and 2.5 µM of propidium iodide (dead). Absorbance/emission was detected at 491/525 nm and 561/620 nm for calcein and PI, respectively. The area of dead:live cells was calculated as a unitary ratio and the observer blinded to treatment identity.

KATP channels = target: T1, KATP channels (Rattus norvegicus, UniProt Q09429); assay: Whole cell patch clamp of HEK293t cells transfected with Kir6.2 and SUR1; format: cell-based; conditions: for Difference (%) in current change between first and last switch / ΔI [pA] first switch / ΔI [pA] last switch: 400 nm; for reversal potential: n = 5 recordings; for % block: versus 500 µM tolbutamide in the same experiment, n = 3
T1 construct: expressed in transfected cells; host or cells: HEK293t (Leibniz-Institut DSMZ: #305)
T1 sequence (Q09429 whole entry): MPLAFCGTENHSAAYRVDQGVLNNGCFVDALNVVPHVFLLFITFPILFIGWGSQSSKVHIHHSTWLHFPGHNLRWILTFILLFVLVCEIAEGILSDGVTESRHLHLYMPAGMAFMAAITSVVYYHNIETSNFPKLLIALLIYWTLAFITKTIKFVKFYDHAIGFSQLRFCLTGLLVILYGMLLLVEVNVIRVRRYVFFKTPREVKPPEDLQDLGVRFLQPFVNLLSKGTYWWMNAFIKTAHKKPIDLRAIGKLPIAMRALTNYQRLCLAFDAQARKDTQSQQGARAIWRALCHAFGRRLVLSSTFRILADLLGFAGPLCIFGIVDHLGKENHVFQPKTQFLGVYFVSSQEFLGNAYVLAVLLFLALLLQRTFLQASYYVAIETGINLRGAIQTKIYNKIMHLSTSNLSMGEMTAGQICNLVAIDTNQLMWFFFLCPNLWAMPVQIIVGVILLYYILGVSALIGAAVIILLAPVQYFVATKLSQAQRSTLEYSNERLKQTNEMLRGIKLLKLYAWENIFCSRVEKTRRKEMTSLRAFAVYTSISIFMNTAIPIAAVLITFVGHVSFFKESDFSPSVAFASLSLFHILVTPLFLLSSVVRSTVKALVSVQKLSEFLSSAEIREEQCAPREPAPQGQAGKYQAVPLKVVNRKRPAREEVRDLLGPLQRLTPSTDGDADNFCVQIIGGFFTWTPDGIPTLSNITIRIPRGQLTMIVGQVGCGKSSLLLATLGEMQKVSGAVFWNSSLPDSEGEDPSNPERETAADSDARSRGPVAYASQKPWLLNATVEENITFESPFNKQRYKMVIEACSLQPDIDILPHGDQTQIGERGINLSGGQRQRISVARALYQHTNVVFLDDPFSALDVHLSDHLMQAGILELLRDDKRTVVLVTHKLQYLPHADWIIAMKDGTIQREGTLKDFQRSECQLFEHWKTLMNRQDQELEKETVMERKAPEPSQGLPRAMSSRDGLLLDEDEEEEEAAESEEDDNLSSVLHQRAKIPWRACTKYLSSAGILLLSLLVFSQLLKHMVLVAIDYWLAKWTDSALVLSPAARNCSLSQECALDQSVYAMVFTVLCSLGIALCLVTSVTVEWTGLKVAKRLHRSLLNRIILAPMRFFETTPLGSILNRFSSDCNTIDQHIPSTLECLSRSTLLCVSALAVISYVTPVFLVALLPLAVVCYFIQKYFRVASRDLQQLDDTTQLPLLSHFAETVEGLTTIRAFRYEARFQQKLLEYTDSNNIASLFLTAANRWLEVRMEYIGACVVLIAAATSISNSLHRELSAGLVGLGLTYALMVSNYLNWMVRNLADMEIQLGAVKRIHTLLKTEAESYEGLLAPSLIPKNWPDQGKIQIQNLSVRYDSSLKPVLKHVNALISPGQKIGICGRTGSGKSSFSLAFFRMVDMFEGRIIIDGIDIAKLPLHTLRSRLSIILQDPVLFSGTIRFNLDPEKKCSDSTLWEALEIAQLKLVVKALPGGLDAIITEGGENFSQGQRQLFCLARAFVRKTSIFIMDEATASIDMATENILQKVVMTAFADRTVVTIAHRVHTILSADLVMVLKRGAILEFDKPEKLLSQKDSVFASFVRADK
T1 sequence (Q61743 whole entry partner): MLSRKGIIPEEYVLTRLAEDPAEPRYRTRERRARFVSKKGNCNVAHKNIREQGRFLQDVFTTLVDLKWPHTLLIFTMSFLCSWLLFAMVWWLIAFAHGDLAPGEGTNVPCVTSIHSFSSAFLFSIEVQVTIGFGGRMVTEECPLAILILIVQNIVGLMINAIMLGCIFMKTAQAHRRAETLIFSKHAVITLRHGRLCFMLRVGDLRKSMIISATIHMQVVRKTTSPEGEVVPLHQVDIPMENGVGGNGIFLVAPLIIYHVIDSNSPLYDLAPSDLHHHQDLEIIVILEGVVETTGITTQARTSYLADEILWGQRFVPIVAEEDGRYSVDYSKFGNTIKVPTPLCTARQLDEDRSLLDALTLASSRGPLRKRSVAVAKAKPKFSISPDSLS
Method: HEK293t cells (obtained from Leibniz-Institut DSMZ: #305) were incubated in Dulbecco's Modified Eagle Medium (DMEM) + 10% FBS and used for electrophysiological recordings 24-48 hrs following Lipofectamine transfection with plasmids encoding Kir6.2 (Genbank D50581), rat SUR1 (Genbank L40624) and GFP. Whole cell patch clamp experiments were performed using a standard electrophysiology setup equipped with a HEKA Patch Clamp EPC10 USB amplifier and PatchMaster software (HEKA Electronik). Micropipettes were generated from "Science Products GB200-F-8P with filament" pipettes using a vertical puller. Resistance varied between 5-7 MΩ. Bath solution contained in mM: 3 KCl, 118 NaCl, 25 NaHCO3, 2 CaCl2, 1 MgCl2, 10 HEPES (NaOH to pH 7.4). Pipette solution contained in mM: 90 K-gluconate, 10 NaCl, 10 KCl, 1 MgCl2, 10 EGTA, 60 HEPES (KOH to pH 7.3), and the holding potential was -60 mV. Illumination during electrophysiology and UV/Vis experiments was provided by a TILL Photonics Polychrome 5000 monochromator.

[2] = four dark/400 nm cycles, single cell, ± SEM
[3] = λ 400 nm, 50 µM JB253, ± SD, n = 3 recordings
[4] = λ 420 nm, 50 µM JB253, ± SD, n = 3 recordings
[5] = λ 440 nm, 50 µM JB253, ± SD, n = 3 recordings
[6] = λ 460 nm, 50 µM JB253, ± SD, n = 3 recordings
[7] = λ 480 nm, 50 µM JB253, ± SD, n = 3 recordings
[8] = λ 500 nm, 50 µM JB253, ± SD, n = 3 recordings

## CCN(CC)c1ccc(/N=N/c2ccc(S(=O)(=O)NC(=O)NC3CCCCC3)cc2)cc1 [JB253, (E)-N-(cyclohexylcarbamoyl)-4-((4-(diethylamino)phenyl)diazenyl)benzenesulfonamide]
[1]
  pKa: 4.76
islets
  cytotoxicity to islets (necrosis indices, cell death versus DMSO-alone): did not appear to be cytotoxic
KATP channels; experiment 1, 12 cycles
  Difference (%) in current change between first and last switch: 34.4%
  ΔI [pA] first switch: 136.5 pA
  ΔI [pA] last switch: 89.5 pA
KATP channels; experiment 2, 9 cycles
  Difference (%) in current change between first and last switch: 3.4%
  ΔI [pA] first switch: 438.8 pA
  ΔI [pA] last switch: 423.8 pA
KATP channels; experiment 3, 5 cycles
  Difference (%) in current change between first and last switch: 19.5%
  ΔI [pA] first switch: 200.0 pA
  ΔI [pA] last switch: 161.0 pA
KATP channels; experiment 4, 4 cycles
  Difference (%) in current change between first and last switch: 2.1%
  ΔI [pA] first switch: 521 pA
  ΔI [pA] last switch: 510 pA
KATP channels; HEK293t Kir6.2/SUR1
  wavelength of maximal photoblock of KATP channels: 460 nm
KATP channels; HEK293t Kir6.2/SUR1, holding potential -60 mV, n = 3 recordings
  photoswitching of K^+ currents at wavelengths > 560 nm: unable to photoswitch
KATP channels; block upon exposure to 400 nm
  τon: 400 ms
KATP channels; dark state, 50 µM JB253, a fraction of the effect of 500 µM tolbutamide
  K^+ current amplitude: partly reduced
KATP channels; dark, ± SEM
  reversal potential: -90.0 ± 1.8 mV
KATP channels; [2]
  ΔI: 504.8±6.9 pA
  τoff: 1472 ± 75 ms
  τon: 477 ± 26 ms
KATP channels; illuminated, ± SEM
  reversal potential: -87.8 ± 1.6 mV
KATP channels; illumination with wavelengths between 400-500 nm, 50 µM JB253
  block relative to that recorded using 500 µM tolbutamide: 45-72%
KATP channels; repeated dark/400 nm cycles, mean of all experiments
  difference in ΔI [pA] between first and last switch: 14.9 ± 7.6%
KATP channels; thermal relaxation after light source shut off (400 nm)
  τoff: 1500 ms
KATP channels; λ 400 nm, 50 µM JB253, single representative experiment
  ΔI: 216 pA
KATP channels; λ 400 nm, 50 µM JB253, ± SD
  % block: 44.0±29.6%
KATP channels; [3]
  τoff: 2758 ± 745 ms
  τon: 1176 ± 385 ms
KATP channels; λ 420 nm, 50 µM JB253, single representative experiment
  ΔI: 492 pA
KATP channels; λ 420 nm, 50 µM JB253, ± SD
  % block: 69.4±51.1%
KATP channels; [4]
  τoff: 2209 ± 482 ms
  τon: 1309 ± 438 ms
KATP channels; λ 440 nm, 50 µM JB253, single representative experiment
  ΔI: 440 pA
KATP channels; λ 440 nm, 50 µM JB253, ± SD
  % block: 70.0±44.3%
KATP channels; [5]
  τoff: 2295 ± 397 ms
  τon: 1246 ± 421 ms
KATP channels; λ 460 nm, 50 µM JB253, single representative experiment
  ΔI: 481 pA
KATP channels; λ 460 nm, 50 µM JB253, ± SD
  % block: 72.8±48.1%
KATP channels; [6]
  τoff: 1940 ± 322 ms
  τon: 1181 ± 447 ms
KATP channels; λ 480 nm, 50 µM JB253, single representative experiment
  ΔI: 487 pA
KATP channels; λ 480 nm, 50 µM JB253, ± SD
  % block: 72.4±49.0%
KATP channels; [7]
  τoff: 2183 ± 422 ms
  τon: 1163 ± 434 ms
KATP channels; λ 500 nm, 50 µM JB253, single representative experiment
  ΔI: 482 pA
KATP channels; λ 500 nm, 50 µM JB253, ± SD
  % block: 70.2±49.5%
KATP channels; [8]
  τoff: 2002 ± 354 ms
  τon: 1244 ± 462 ms
